Measurements: ChEMBL document CHEMBL5608170, “An insight into sustainable and green chemistry approaches for the synthesis of quinoline derivatives as anticancer agents” (Eur J Med Chem, 2024)
Converted amounts (≈) assume the structure as drawn. Values belong to the compound of their own block, whether it stands above or below them. *1 amine or outer side, *2 acyl side, *3 side chain or, on linkers, in order; H or OH if unused. Where a SMILES comes first, the peptide text is derived from it. Bridges are numbered along the chain shown (N, C = ends). Roman numbers before positions name the chains, in order. [ ]: non-standard residue; d: D form. Actinocin(1to9) = Cc1c2oc3c(C)ccc(C(=O)[*:2])c3nc-2c(C(=O)[*:1])c(N)c1=O; NMeV = CN[C@H](C(=O)O)C(C)C; Sar = CNCC(=O)O

Legend:
PC-3 = assay: Cytotoxicity against human PC-3 cells assessed as reduction in cell growth measured for 48 hrs by MTT assay; format: functional, cell-based; settings: PC-3, 48 h
DU-145 = assay: Cytotoxicity against human DU-145 cells assessed as reduction in cell growth measured for 48 hrs by MTT assay; format: functional, cell-based; settings: DU-145, 48 h
HeLa [1] = assay: Anticancer activity against human HeLa cells assessed as reduction in cell growth incubated for 48 hrs by MTT assay; format: functional, cell-based
MCF7 [2] = assay: Anticancer activity against human MCF7 cells assessed as reduction in cell growth incubated for 48 hrs by MTT assay; format: functional, cell-based; settings: MCF7, 48 h
NCI-H460 = assay: Antiproliferative activity against human NCI-H460 cells assessed as reduction in cell viability by MTT assay; format: functional, cell-based
A549 [3] = assay: Antiproliferative activity against human A549 cells assessed as reduction in cell viability by MTT assay; format: functional, cell-based
B16-F10 = assay: Cytotoxicity against mouse B16-F10 cells assessed as reduction in cell viability incubated for 48 hrs by MTT assay; format: functional, cell-based; settings: B16-F10, 48 h
K562 = assay: Growth inhibition of human K562 cells at 10 uM incubated for 24 hrs by MTT assay; format: functional; settings: read-out: GI
HeLa [4] = assay: Growth inhibition of human HeLa cells by SRB assay; format: functional
MCF7 [5] = assay: Cytotoxicity against human MCF7 cells assessed as reduction in cell viability by MTT assay; format: functional, cell-based
A498 = assay: Growth inhibition of human A498 cells at 10 uM by SRB assay relative to control; format: functional; settings: read-out: GI
CCRF-CEM = assay: Growth inhibition of human CCRF-CEM cells at 10 uM by SRB assay relative to control; format: functional; settings: read-out: GI
UO-31 = assay: Growth inhibition of human UO-31 cells at 10 uM by SRB assay relative to control; format: functional; settings: read-out: GI
HOP-92 = assay: Growth inhibition of human HOP-92 cells at 10 uM by SRB assay relative to control; format: functional; settings: read-out: GI
HOP-62 = assay: Growth inhibition of human HOP-62 cells at 10 uM by SRB assay relative to control; format: functional; settings: read-out: GI
[6] = Cytotoxicity against human HEp-2C cells assessed as reduction in cell viability incubated for 72 hrs by MTT assay; format: functional, cell-based; settings: Hep2C
MDA-MB-231 [7] = assay: Cytotoxicity against human MDA-MB-231 cells assessed as reduction in cell viability incubated for 48 hrs by MTT assay; format: functional, cell-based; settings: MDA-MB-231, 48 h
MDA-MB-231 [8] = assay: Cytotoxicity against human MDA-MB-231 cells assessed as reduction in cell growth measured for 48 hrs by MTT assay; format: functional, cell-based; settings: MDA-MB-231, 48 h
HeLa [9] = assay: Growth inhibition of human HeLa cells; format: functional
SW1573 = assay: Growth inhibition of human SW1573 cells; format: functional
WiDr = assay: Growth inhibition of human WiDr cells; format: functional
T47D = assay: Growth inhibition of human T47D cells; format: functional
HBL-100 = assay: Growth inhibition of human HBL-100 cells; format: functional
A549 [10] = assay: Growth inhibition of human A549 cells; format: functional
HCT 116 TP53(-/-) = assay: Antiproliferative activity against human HCT116-p53-null cells assessed as reduction in cell viability by MTT assay; format: functional, cell-based
MCF7 [11] = assay: Cytotoxicity against human MCF7 cells assessed as reduction in cell viability incubated for 24 hrs by MTT assay; format: functional, cell-based; settings: MCF7, 24 h
HCT-116 = assay: Cytotoxicity against human HCT-116 cells assessed as reduction in cell viability incubated for 24 hrs by MTT assay; format: functional, cell-based; settings: HCT-116, 24 h
HepG2 = assay: Cytotoxicity against human HepG2 cells assessed as reduction in cell viability incubated for 24 hrs by MTT assay; format: functional, cell-based; settings: HepG2, 24 h
A549 [12] = assay: Cytotoxicity against human A549 cells assessed as reduction in cell viability incubated for 24 hrs by MTT assay; format: functional, cell-based; settings: A549, 24 h
HT-29 = assay: Cytotoxicity against human HT-29 cells assessed as reduction in cell viability incubated for 72 hrs by MTT assay; format: functional, cell-based; settings: HT-29, 72 h
A549 [13] = assay: Cytotoxicity against human A549 cells assessed as reduction in cell viability incubated for 72 hrs by MTT assay; format: functional, cell-based; settings: A549, 72 h

SMILES: O=C1N(c2ccccc2S)c2[nH]c(=O)[nH]c(=O)c2C12c1ccccc1Nc1c2[nH]c(=O)[nH]c1=O (stereo not given)
- IC50 (PC-3): 18.4 µM
- IC50 (DU-145): 17.7 µM

- IC50 (HeLa [1]): 15.7 µM
- IC50 (MCF7 [2]): 31.4 µM
SMILES: COc1cccc(-n2nnc3c2-c2ccc4cccnc4c2OC3)c1

- IC50 (NCI-H460): 7.1 µM
- IC50 (A549 [3]): 11.2 µM
SMILES: COc1ccc(Nc2nc3ccccc3c(Nc3ccc(OC)cc3)c2[N+](=O)[O-])cc1

SMILES: CNC(=O)c1cccc2cc(Oc3ccnc4cc(OCC5(N)CC5)c(OC)cc34)ccc12 [LUCITANIB]
- IC50 (B16-F10): 16.3 µM

SMILES: Cc1c2oc3c(C)ccc(C(=O)N[C@@H]4C(=O)N[C@H](C(C)C)C(=O)N5CCC[C@H]5C(=O)N(C)CC(=O)N(C)[C@@H](C(C)C)C(=O)O[C@@H]4C)c3nc-2c(C(=O)N[C@@H]2C(=O)N[C@H](C(C)C)C(=O)N3CCC[C@H]3C(=O)N(C)CC(=O)N(C)[C@@H](C(C)C)C(=O)O[C@@H]2C)c(N)c1=O [DACTINOMYCIN] (I: T[dV]P[Sar][NMeV] / II: T[dV]P[Sar][NMeV]; ester I:1-I:C, II:1-II:C; linker I:N-II:N via Actinocin(1to9))
- IC50 (B16-F10): 13.4 µM

SMILES: COc1ccc(-c2cn3c4c(cccc24)CCC3)cc1
- inhibition of growth at 10 µM (K562): 66%

- GI50 (HeLa [4]): < 0.1 µM
SMILES: CC(=O)NC1=NN(C(C)=O)C(c2cc3cc(Cl)ccc3n3nnnc23)S1 (stereo not given)

SMILES: COC(=O)c1c(C(F)(F)F)nc2c(c1-c1ccc(S(=O)(=O)c3ccccc3)cc1)C(=O)CC(C)(C)C2
- IC50 (MCF7 [5]): 0.002 µM

SMILES: Cc1cc(=O)n(C(=O)Nc2ccc(F)c(Cl)c2)c2cc(O)ccc12
- inhibition of growth at 10 µM (A498): 20.5%
- inhibition of growth at 10 µM (CCRF-CEM): 58.6%
- inhibition of growth at 10 µM (UO-31): 30%
- inhibition of growth at 10 µM (HOP-92): 27.4%
- inhibition of growth at 10 µM (HOP-62): 17.6%

SMILES: Clc1cccc(NCN2CCCc3ccccc32)c1
- IC50 [6]: 11.9 µM

- IC50 (NCI-H460): 5.4 µM
- IC50 (A549 [3]): 6.5 µM
SMILES: COc1ccccc1Nc1nc2ccccc2c(Nc2ccccc2OC)c1[N+](=O)[O-]

SMILES: O=C1N(c2ccc(Cl)cc2)c2[nH]c(=O)[nH]c(=O)c2C12c1ccccc1Nc1c2[nH]c(=O)[nH]c1=O (stereo not given)
- IC50 (PC-3): 19.9 µM
- IC50 (DU-145): 16.5 µM

SMILES: COC1=C(N)C(=O)c2nc(-c3nc(C(=O)O)c(C)c(-c4ccc(OC)c(OC)c4O)c3N)ccc2C1=O [STREPTONIGRIN]
- IC50 (MDA-MB-231 [7]): 30.5 µM

SMILES: O=C1N(c2cccnc2)c2[nH]c(=O)[nH]c(=O)c2C12c1ccccc1Nc1c2[nH]c(=O)[nH]c1=O (stereo not given)
- IC50 (PC-3): 15.4 µM
- IC50 (DU-145): 15 µM
- IC50 (MDA-MB-231 [8]): 7.97 µM

- GI50 (HeLa [9]): 11 µM
- GI50 (SW1573): 6 µM
- GI50 (T47D): 16 µM
- GI50 (A549 [10]): 9.5 µM
SMILES: COc1cc2nccc(Oc3ccc(NC(=O)C4(C(=O)Nc5ccc(F)cc5)CC4)cc3)c2cc1OC [CABOZANTINIB]
- GI50 (WiDr): 14 µM
- GI50 (HBL-100): 17 µM

- GI50 (HeLa [9]): 4 µM
- GI50 (SW1573): 8 µM
- GI50 (T47D): 10 µM
- GI50 (A549 [10]): 12 µM
SMILES: COc1cc2nccc(Oc3ccc(NC(=O)NC4CC4)c(Cl)c3)c2cc1C(N)=O [LENVATINIB]
- GI50 (WiDr): 19 µM
- GI50 (HBL-100): 10 µM

- IC50 (HCT 116 TP53(-/-)): 5.1 µM
SMILES: O=[N+]([O-])c1c(Nc2ccc(F)c(Cl)c2)nc2ccccc2c1Nc1ccc(F)c(Cl)c1

SMILES: COc1ncccc1-c1cc(-c2cn(Cc3ccccc3F)nn2)cc2ccc(C)nc12
- IC50 (MDA-MB-231 [7]): 19.8 µM

SMILES: N#CC1=C(N)Oc2c(ccc3cccnc23)C1c1ccc(Br)cc1 (stereo not given)
- IC50 (MCF7 [11]): 1.17 µg/mL (≈ 3.09 µM)
- IC50 (HCT-116): 1.3 µg/mL (≈ 3.44 µM)
- IC50 (HepG2): 1.41 µg/mL (≈ 3.73 µM)
- IC50 (A549 [12]): 38 µg/mL (≈ 100 µM)

SMILES: COc1cc(/C=C2\OCc3nc4ccccc4c(-c4ccccc4)c3C2=O)cc(OC)c1OC
- IC50 (HT-29): 7.69 µg/mL (≈ 17 µM)
- IC50 (A549 [13]): 4.82 µg/mL (≈ 10.6 µM)
